Results as given in patent US20220033397A1, “PHARMACEUTICAL COMPOUNDS AND THEIR USE AS INHIBITORS OF UBIQUITIN SPECIFIC PROTEASE 19 (USP19)” (ALMAC DISCOVERY LIMITED, priority 2018, published 2022).

molecular target: T1, Full-length USP19 (Homo sapiens, UniProt O94966); assay: USP19 fluorescence polarisation (FP) homogeneous assay with Ubiquitin-Lys-TAMRA substrate; type: biochemical; settings: 2.5 nM USP19, 30 min pre-incubation, average of at least two duplicate experiments
T1 construct: Full-length USP19 was purchased from Boston Biochem (E-576); purchased Boston Biochem E-576
T1 sequence (O94966 1-1318): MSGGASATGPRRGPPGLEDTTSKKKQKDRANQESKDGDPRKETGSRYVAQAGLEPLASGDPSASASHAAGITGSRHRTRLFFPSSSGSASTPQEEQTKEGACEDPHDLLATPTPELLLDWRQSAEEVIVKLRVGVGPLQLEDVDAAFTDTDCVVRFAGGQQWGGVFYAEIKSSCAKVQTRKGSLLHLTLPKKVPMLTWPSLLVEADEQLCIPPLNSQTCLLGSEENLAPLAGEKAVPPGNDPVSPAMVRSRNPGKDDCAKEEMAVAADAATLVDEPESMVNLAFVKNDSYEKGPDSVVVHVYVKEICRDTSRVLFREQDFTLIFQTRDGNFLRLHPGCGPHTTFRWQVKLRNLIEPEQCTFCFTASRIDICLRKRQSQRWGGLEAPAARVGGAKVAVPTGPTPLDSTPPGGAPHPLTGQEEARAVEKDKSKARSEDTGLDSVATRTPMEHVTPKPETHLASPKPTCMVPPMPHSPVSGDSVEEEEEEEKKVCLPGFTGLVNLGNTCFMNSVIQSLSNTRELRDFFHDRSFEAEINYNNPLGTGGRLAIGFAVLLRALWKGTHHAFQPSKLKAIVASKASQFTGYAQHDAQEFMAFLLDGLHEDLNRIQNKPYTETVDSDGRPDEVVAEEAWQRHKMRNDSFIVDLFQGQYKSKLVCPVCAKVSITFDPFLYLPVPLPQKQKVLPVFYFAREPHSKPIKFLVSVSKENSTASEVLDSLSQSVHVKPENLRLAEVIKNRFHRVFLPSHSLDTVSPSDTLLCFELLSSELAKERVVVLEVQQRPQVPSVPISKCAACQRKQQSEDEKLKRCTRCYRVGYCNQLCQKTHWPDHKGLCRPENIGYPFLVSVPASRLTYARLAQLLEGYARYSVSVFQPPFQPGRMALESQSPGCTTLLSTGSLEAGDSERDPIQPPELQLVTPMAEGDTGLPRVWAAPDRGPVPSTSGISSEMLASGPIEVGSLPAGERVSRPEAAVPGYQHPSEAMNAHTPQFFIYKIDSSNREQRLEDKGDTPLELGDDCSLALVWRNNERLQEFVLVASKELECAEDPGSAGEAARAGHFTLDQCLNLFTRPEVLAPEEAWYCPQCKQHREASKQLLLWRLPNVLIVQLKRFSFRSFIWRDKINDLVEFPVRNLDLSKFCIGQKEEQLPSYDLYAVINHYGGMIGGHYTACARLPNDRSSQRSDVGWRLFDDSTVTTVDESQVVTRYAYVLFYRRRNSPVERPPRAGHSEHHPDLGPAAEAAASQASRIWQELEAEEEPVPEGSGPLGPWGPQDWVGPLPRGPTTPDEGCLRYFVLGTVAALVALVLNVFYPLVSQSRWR
Summary of the method: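 Full-length USP19 preincubated 30 min at RT with inhibitor (200 μM to 2 μM series, 8–18 points) before adding 500 nM Ubiquitin-Lys-TAMRA substrate.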

IC50 [µM] | Compound
5 to 50 | O=C(N1CCC(C(F)F)CC1)N1CCC(O)(Cn2cnc(-c3ccccc3)cc2=O)C2(CCCC2)C1 (stereo not drawn) [Example 241, 3-((7-(4-(Difluoromethyl)piperidine-1-carbonyl)-10-hydroxy-7-azaspiro[4.5]decan-10-yl)methyl)-6-phenylpyrimidin-4(3H)-one]
50 to 250 | CN(Cc1ccco1)C(=O)N1CCC(O)(Cn2cnc(-c3ccccc3)cc2=O)C2(CCCC2)C1 (stereo not drawn) [Example 242, N-(Furan-2-ylmethyl)-10-hydroxy-N-methyl-10-((6-oxo-4-phenylpyrimidin-1(6H)-yl)methyl)-7-azaspiro[4.5]decane-7-carboxamide]
5 to 50 | O=C(N1CCC(O)(Cn2cnc(-c3ccccc3)cc2=O)C2(CCCC2)C1)N1CCOC2CC21 (stereo not drawn) [Example 243, 3-((7-(2-Oxa-5-azabicyclo[4.1.0]heptane-5-carbonyl)-10-hydroxy-7-azaspiro[4.5]decan-10-yl)methyl)-6-phenylpyrimidin-4(3H)-one]
5 to 50 | CN(Cc1cccnc1)C(=O)N1CCC(O)(Cn2cnc(-c3ccccc3)cc2=O)C2(CCCC2)C1 (stereo not drawn) [Example 244, 10-Hydroxy-N-methyl-10-((6-oxo-4-phenylpyrimidin-1(6H)-yl)methyl)-N-(pyridin-3-ylmethyl)-7-azaspiro[4.5]decane-7-carboxamide]
0.5 to 5 | O=C(N1CCC(O)(Cn2cnc(-c3ccccc3)cc2=O)C2(CCCC2)C1)N1CCCC1c1cccnc1 (stereo not drawn) [Example 245, 3-((10-Hydroxy-7-(2-(pyridin-3-yl)pyrrolidine-1-carbonyl)-7-azaspiro[4.5]decan-10-yl)methyl)-6-phenylpyrimidin-4(3H)-one]
5 to 50 | O=C(N1CCC(n2cccc2)C1)N1CCC(O)(Cn2cnc(-c3ccccc3)cc2=O)C2(CCCC2)C1 (stereo not drawn) [Example 246, 3-((7-(3-(1H-Pyrrol-1-yl)pyrrolidine-1-carbonyl)-10-hydroxy-7-azaspiro[4.5]decan-10-yl)methyl)-6-phenylpyrimidin-4(3H)-one]
5 to 50 | CC(C1CC1)N(C)C(=O)N1CCC(O)(Cn2cnc(-c3ccccc3)cc2=O)C2(CCCC2)C1 (stereo not drawn) [Example 247, N-(1-Cyclopropylethyl)-10-hydroxy-N-methyl-10-((6-oxo-4-phenylpyrimidin-1(6H)-yl)methyl)-7-azaspiro[4.5]decane-7-carboxamide]
5 to 50 | O=C(N1CCC(O)(Cn2cnc(-c3ccccc3)cc2=O)C2(CCCC2)C1)N1CCOCC1C1CC1 (stereo not drawn) [Example 248, 3-((7-(3-Cyclopropylmorpholine-4-carbonyl)-10-hydroxy-7-azaspiro[4.5]decan-10-yl)methyl)-6-phenylpyrimidin-4(3H)-one]
0.5 to 5 | O=C(N1CCC(O)(Cn2cnc(-c3ccccc3)cc2=O)C2(CCCC2)C1)N1CCCC1c1ccncc1 (stereo not drawn) [Example 249, 3-((10-Hydroxy-7-(2-(pyridin-4-yl)pyrrolidine-1-carbonyl)-7-azaspiro[4.5]decan-10-yl)methyl)-6-phenylpyrimidin-4(3H)-one]
5 to 50 | O=C(N1CCCC2(CC2)C1)N1CCC(O)(Cn2cnc(-c3ccccc3)cc2=O)C2(CCCC2)C1 (stereo not drawn) [Example 250, 3-((10-Hydroxy-7-(5-azaspiro[2.5]octane-5-carbonyl)-7-azaspiro[4.5]decan-10-yl)methyl)-6-phenylpyrimidin-4(3H)-one]
0.5 to 5 | CN(Cc1cccc(C#N)c1)C(=O)N1CCC(O)(Cn2cnc(-c3ccccc3)cc2=O)C2(CCCC2)C1 (stereo not drawn) [Example 251, N-(3-Cyanobenzyl)-10-hydroxy-N-methyl-10-((6-oxo-4-phenylpyrimidin-1(6H)-yl)methyl)-7-azaspiro[4.5]decane-7-carboxamide]
5 to 50 | O=C(N1CC(C2CC2)C1)N1CCC(O)(Cn2cnc(-c3ccccc3)cc2=O)C2(CCCC2)C1 (stereo not drawn) [Example 252, 3-((7-(3-Cyclopropylazetidine-1-carbonyl)-10-hydroxy-7-azaspiro[4.5]decan-10-yl)methyl)-6-phenylpyrimidin-4(3H)-one]
